From US12036300B2, “Methods and compositions for improving skin” (L'OREAL, priority 2021, dated 2024)

Experiments:
[1] = system: human primary melanocytes; assay: Melanin content of human primary melanocyte cultures treated for ten days, with or without prostaglandin E2; format: cell-based; settings: FIGS. 1 and 2
Protocol: Six cultures of human primary melanocytes were grown for four days. Thereafter, the cultures were treated with 10 μL of one of Compositions A-E each day for ten days. Composition A contained 0.005 wt. % of acetyl trifluoromethylphenyl valylglycine, 2 wt. % ethanol, and the remainder being water. Composition B contained 0.05 wt. % of acetyl trifluoromethylphenyl valylglycine, 2 wt. % ethanol, and the remainder being water. Composition C contained 30 nM of prostaglandin E2, 2 wt. % ethanol, and the remainder being water. Composition D contained 0.005 wt. % of acetyl trifluoromethylphenyl valylglycine, 30 nM of prostaglandin E2, 2 wt. % ethanol, and the remainder being water. Composition E contained 0.05 wt. % of acetyl trifluoromethylphenyl valylglycine, 30 nM of prostaglandin E2, 2 wt. % ethanol, and the remainder being water. All weight percentages for Compositions A-E were based on the total weight of the respective composition. […]
After the 10 days, the cells of the culture were lysed and the melanin content was measured. Specifically, the cells were stained with Fontana Masion Staining and measured with a plate reader. A BCA assay was performed to quantify the protein concentration. […] To eliminate the melanin content caused by increased NHEM cell number in the system, the final melanin level was calculated by dividing the protein content in each culture. […]

[2] = system: p38 MAPK; assay: qRT-PCR gene expression of p38 in NHEM after 10 days of treatment; format: cell-based, human; settings: FIG. 3B
Protocol: (§1) The efficacy of acetyl trifluoromethylphenyl valylglycine to modulate key gene markers in the inflammatory pathway as it relates to post inflammatory hyperpigmentation conditions was evaluated. Specifically, four well plates were seeded with a single cell culture of normal human epidermal melanocyte (NHEM), and grown in a culture medium (namely, culture medium no. M254500, obtained from ThermoFisher™) and supplemented with Gibco™ human melanocyte growth supplement (namely, Human Melanocyte Growth Supplement-2 no. S0165, obtained from ThermoFisher™) at a density of 10,000 cells/cm^2 for 3 to 4 days.
(§2) The culture medium was then replaced by culture mediums containing different treatments. Specifically, the cell cultures were treated with 10 μL of one of Compositions C-E once a day for ten days (except weekends). After 10 days, the cells were trypsinized and centrifuged at 180×gravity for 7 minutes followed by RNA isolation using a QIAshredder cell lysate homogenizer no. […] The RNA was then quantified using the NanoDrop Spectrophotometer.
(§3) After RNA isolation was completed, samples of 1 μg of RNA from each cell culture was used for cDNA reactions for reverse transcription. […] The ΔΔCt values were then determined for each biological replicate by normalizing to the appropriate untreated control average ΔCt value. The ΔΔCt values were then used to calculate relative quantification (RQ) values.

[3] = system: COX-2; assay: qRT-PCR gene expression of COX-2 in NHEM after 10 days of treatment; format: cell-based, human; settings: FIG. 3A
Protocol: as §1, §2, §3

[4] = system: tri-culture model (Normal Human Epidermal Melanocytes, Normal Human Epidermal Keratinocytes, and Normal Human Dermal Fibroblast); assay: Melanin synthesis inhibition in tri-culture model; format: cell-based; settings: 100 μM, tri-culture model (K/M/F), once a day for 10 days; FIG. 5
Protocol: (§4) Tri-culture models, co-culture models, and single cell culture models were treated with a composition containing acetyl trifluoromethylphenyl valylglycine to assess the effects on different skin cells. Specifically, the three cultures for each of the tri-culture models (Normal Human Epidermal Melanocytes, Normal Human Epidermal Keratinocytes, and Normal Human Dermal Fibroblast), co-culture models (Normal Human Epidermal Melanocytes and Normal Human Epidermal Keratinocytes), and single cell culture models (Normal Human Epidermal Melanocytes) were grown for four days. The cultures were then treated once a day for 10 days with a composition containing 10% DMSO, water, and lipoic acid (Composition G) in an amount to deposit […] to the cell culture models, a composition containing 10% DMSO, water, and acetyl trifluoromethylphenyl valylglycine (Composition H) in an amount to deposit […] to the cell culture models, or a composition containing 10% DMSO, water, and acetyl trifluoromethylphenyl valylglycine (Composition I) in an amount to deposit […] to the cell culture models. The media for the cultures was changed each day over the ten-day period.
(§5) After the 10 days, the cells of the culture were lysed and the melanin content was measured using a procedure and equipment similar to that described in Example 2. […]

[5] = system: co-culture models (Normal Human Epidermal Melanocytes and Normal Human Epidermal Keratinocytes); assay: Melanin synthesis inhibition in co-culture model; format: cell-based; settings: co-culture on melanocytes and keratinocytes, once a day for 10 days; FIG. 5
Protocol: as §4, §5

[6] = system: single cell culture models (Normal Human Epidermal Melanocytes); assay: Melanin synthesis inhibition in single cell culture model; format: cell-based; settings: FIG. 5
Protocol: as §4, §5

[7] = prostaglandin E2 alone (30 nM), NHEM
[8] = with 30 nM prostaglandin E2, NHEM

Row | Structure (SMILES) | melanin production ([1]; prostaglandin E2 alone (30 nM), once a day for ten days) | p38 MAPK expression [2, 7] | COX-2 expression [3, 7] | melanin synthesis after induction by prostaglandin E2 ([1]; with 30 nM prostaglandin E2, once a day for ten days, melanin normalised to protein content) | L-Tyrosine-induced melanin synthesis [4] | level of P38 MAPK induced by prostaglandin E2 [2, 8] | level of COX-2 induced by prostaglandin E2 [3, 8] | melanin synthesis [5] | inhibitory effect on melanin synthesis relative to tri-culture ([6]; melanocytes cultures compared with tri-culture) | melanin synthesis ([6]; melanocytes cultures, once a day for 10 days)
1 | CCCCC[C@H](O)/C=C/[C@H]1[C@H](O)CC(=O)[C@@H]1C/C=C\CCCC(=O)O [prostaglandin E2, reference compound] | stimulates melanin production | triggered the cascade | triggered the cascade |  |  |  |  |  |  | 
2 | CC(=O)N(c1cccc(C(F)(F)F)c1)C(C(=O)NCC(=O)O)C(C)C (stereo not shown) [acetyl trifluoromethylphenyl valylglycine] |  |  |  | reduces melanin synthesis | inhibited L-Tyrosine-induced melanin synthesis | significantly attenuated | significantly attenuated | did not appear to inhibit melanin synthesis | less than the observed in the tri-culture | an inhibitory effect was observed
